Assay results as given in patent US8415469B2, “Compounds and methods for kinase modulation, and indications therefor” (Plexxikon Inc., priority 2005, dated 2013).

Legend:
Format in all cases: biochemical
Kdr = biological target: T1, Kdr (Homo sapiens, UniProt P35968); experiment: Z'-Lyte FRET kinase assay (Invitrogen), Kdr; conditions: read-out: IC50, activity toward kinase Kdr
T1 construct: purchased Invitrogen (assay run by Invitrogen)

PKC theta = biological target: T2, PKC theta (Homo sapiens, UniProt Q04759); experiment: Z'-Lyte FRET kinase assay (Invitrogen), PKC theta; conditions: read-out: IC50, activity toward kinase PKC theta
T2 construct: purchased Invitrogen (Carlsbad, Calif.), screening service
From the text: The effect of potential modulators of kinase activity can be measured in a variety of different assays known in the art. For example, direct radiometric, indirect FRET or AlphaScreen assays may be used to assess the level of phosphorylation of a substrate in the presence of test compounds in order to determine the inhibitory affect of the compound on the kinase. Invitrogen (Carlsbad, Calif.) uses a FRET based assay for Btk, EGFR, EphB2, Flt3, lrak4, Kdr, MAP2K1, MAPKAPK2, PDGFRB, PKC theta, Stk6 and Yes. For these assays, compounds of the invention were screened by Invitrogen using Z′-Lyte™ kinase assay.
Briefly, the Invitrogen kinase assay involves use of a specific peptide substrate optimized for each kinase, containing a fluorophore at each end that make up the FRET pair. The peptide sensitivity to proteolytic cleavage depends on phosphorylation of the peptide. Non-phosphorylated peptide is cleaved by a protease while peptide phosphorylated by the kinase is not cleaved. Cleavage of the peptide disrupts the FRET between the donor (coumarin) and acceptor (fluorescein) fluorophores, resulting in an increase in the ratio of donor emission to acceptor emission. The emission ratio of coumarin to fluorescein is used to assess the reaction progress. The extent of phosphorylation is determined from the emission ratio, which is low when the kinase is active (phosphorylated peptide is not cleaved, FRET pair connected) or higher for inhibited kinase (non-phosphorylated peptide is cleaved, FRET pair separated). Thus, the assay involves a kinase reaction in the presence of varying concentrations of a given compound, a development reaction with site specific protease, and detection of the fluorescent emission ratio of coumarin and fluorscein. […] Reaction conditions for each kinase are determined to provide optimal reaction times, incubation temperature, kinase and ATP concentrations. Test samples are made up in 1× kinase buffer (50 mM HEPES pH 7.5, 50 mM MgCl2, 5 mM EGTA, 0.05% BRIJ-35) and compound at desired concentration prepared in DMSO such that the final DMSO is 1%. […] Typically, assay plates are prepared to 10 μl final volume per sample, adding 2.5 μl of compound at 4× the desired concentration in 4% DMSO (serial dilution of compound provides concentration curve), 5 μl of the desired kinase mixed with Z′-LYTE™ peptide substrate (2× in 2× kinase buffer, final peptide at 2 μM), and 2.5 μl of 4×ATP solution. All kinase except for MAP2K1 were at 10 μM ATP in the kinase reaction, while MAP2K1 was at 100 μM. Samples are mixed and the kinase reaction is incubated 1 hour at room temperature, after which 5 μl of development solution is added and mixed. After incubation for another 1 hour at room temperature, 5 μl of stop reagent is added to each sample and mixed. The fluorescence signals are measured to determine the emission ratio.

Zap70 = biological target: T3, Zap70 (Homo sapiens, UniProt P43403); experiment: AlphaScreen kinase assay, Zap70; conditions: read-out: IC50, activity toward kinase Zap70
T3 construct: P1868.pFastBac1 ZAP70 D327-G606 HIS, WT; His7 (HHHHHHH) (C); made in house
T3 sequence (P43403 with tags, fused parts or gaps): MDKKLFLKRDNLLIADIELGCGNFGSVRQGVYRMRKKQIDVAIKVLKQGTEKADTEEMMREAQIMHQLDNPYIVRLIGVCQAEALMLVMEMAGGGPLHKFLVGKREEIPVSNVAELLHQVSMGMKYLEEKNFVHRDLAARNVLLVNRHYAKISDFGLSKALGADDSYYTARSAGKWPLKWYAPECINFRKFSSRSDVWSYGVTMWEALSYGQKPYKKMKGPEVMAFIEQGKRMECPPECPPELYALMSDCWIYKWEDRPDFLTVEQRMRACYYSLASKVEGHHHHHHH
Method in brief: (§1)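 Uses phospho-specific antibody on acceptor beads plus streptavidin donor beads capturing biotinylated peptide substrate; singlet oxygen from donor excites nearby acceptor. Inhibitors tested in 8-point, 1:3 titrations starting from 20 mM DMSO solutions.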

Stk6 = biological target: T4, Stk6 (Homo sapiens, UniProt O14965); experiment: Z'-Lyte FRET kinase assay (Invitrogen), Stk6; conditions: read-out: IC50, activity toward kinase Stk6
T4 construct: purchased Invitrogen (Carlsbad, Calif.), screening service
T4 sequence (O14965 1-403): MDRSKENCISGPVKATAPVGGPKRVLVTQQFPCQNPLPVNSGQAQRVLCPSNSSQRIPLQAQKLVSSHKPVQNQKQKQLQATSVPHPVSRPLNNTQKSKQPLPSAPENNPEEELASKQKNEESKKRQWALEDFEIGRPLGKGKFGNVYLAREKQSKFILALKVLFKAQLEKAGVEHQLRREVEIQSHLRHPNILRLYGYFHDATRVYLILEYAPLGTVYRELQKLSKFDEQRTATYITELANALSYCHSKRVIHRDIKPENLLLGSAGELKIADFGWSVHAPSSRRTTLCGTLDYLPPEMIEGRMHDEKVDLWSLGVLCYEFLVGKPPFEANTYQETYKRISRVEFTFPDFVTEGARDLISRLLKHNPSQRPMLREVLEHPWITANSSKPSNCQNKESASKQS

Kit = biological target: T5, Kit (Homo sapiens, UniProt P10721); experiment: AlphaScreen kinase assay, Kit; conditions: read-out: IC50, activity toward kinase Kit
T5 construct: P1332.N6 BI PTP KIT M552-K948-X COD; His6 (N); made in house; host or cells: E. coli (PTP1B co-expressed)

Pyk2 = biological target: T6, Pyk2 (Homo sapiens, UniProt Q14289); experiment: AlphaScreen kinase assay, Pyk2; conditions: read-out: IC50, activity toward kinase Pyk2
T6 construct: purchased Upstate Biotechnology

MAP4K4 = MAP4K4 (Homo sapiens, UniProt O95819); experiment: AlphaScreen kinase assay, MAP4K4; conditions: read-out: IC50, activity toward kinase MAP4K4
Jnk2 = biological target: T7, Jnk2 (Homo sapiens, UniProt P45984); experiment: AlphaScreen kinase assay, Jnk2; conditions: read-out: IC50, activity toward kinase Jnk2
T7 construct: purchased Roche Protein Expression Group (Indianapolis, IN)
Method in brief: as §1

Ret = biological target: T8, Ret (Homo sapiens, UniProt P07949); experiment: AlphaScreen kinase assay, Ret; conditions: read-out: IC50, activity toward kinase Ret
T8 construct: P1378.pET-SF BI-PTP RET H661-R1012 HIS; made in house
T8 sequence (P07949 with tags, fused parts or gaps): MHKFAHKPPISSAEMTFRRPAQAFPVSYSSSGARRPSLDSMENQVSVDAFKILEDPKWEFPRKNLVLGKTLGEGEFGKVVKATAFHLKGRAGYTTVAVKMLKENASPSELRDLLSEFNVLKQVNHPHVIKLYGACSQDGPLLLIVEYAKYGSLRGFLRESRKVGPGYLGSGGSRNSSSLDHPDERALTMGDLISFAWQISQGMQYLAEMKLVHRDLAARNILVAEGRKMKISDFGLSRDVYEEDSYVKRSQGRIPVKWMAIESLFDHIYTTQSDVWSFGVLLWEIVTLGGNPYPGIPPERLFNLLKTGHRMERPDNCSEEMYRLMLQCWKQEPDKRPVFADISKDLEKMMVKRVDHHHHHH

Measured: IC50

T5 sequence (P10721 with tags, fused parts or gaps): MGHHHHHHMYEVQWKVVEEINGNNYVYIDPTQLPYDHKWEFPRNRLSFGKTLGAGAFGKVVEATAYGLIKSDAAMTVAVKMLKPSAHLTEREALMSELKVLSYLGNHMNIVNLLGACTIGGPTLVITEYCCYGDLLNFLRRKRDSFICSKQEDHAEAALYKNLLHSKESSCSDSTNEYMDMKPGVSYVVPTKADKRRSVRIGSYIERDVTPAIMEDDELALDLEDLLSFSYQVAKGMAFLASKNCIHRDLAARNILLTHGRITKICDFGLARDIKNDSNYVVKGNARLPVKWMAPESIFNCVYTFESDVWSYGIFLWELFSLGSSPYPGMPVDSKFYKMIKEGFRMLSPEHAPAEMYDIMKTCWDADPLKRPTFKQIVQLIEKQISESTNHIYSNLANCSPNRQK
T2 sequence (Q04759 whole entry): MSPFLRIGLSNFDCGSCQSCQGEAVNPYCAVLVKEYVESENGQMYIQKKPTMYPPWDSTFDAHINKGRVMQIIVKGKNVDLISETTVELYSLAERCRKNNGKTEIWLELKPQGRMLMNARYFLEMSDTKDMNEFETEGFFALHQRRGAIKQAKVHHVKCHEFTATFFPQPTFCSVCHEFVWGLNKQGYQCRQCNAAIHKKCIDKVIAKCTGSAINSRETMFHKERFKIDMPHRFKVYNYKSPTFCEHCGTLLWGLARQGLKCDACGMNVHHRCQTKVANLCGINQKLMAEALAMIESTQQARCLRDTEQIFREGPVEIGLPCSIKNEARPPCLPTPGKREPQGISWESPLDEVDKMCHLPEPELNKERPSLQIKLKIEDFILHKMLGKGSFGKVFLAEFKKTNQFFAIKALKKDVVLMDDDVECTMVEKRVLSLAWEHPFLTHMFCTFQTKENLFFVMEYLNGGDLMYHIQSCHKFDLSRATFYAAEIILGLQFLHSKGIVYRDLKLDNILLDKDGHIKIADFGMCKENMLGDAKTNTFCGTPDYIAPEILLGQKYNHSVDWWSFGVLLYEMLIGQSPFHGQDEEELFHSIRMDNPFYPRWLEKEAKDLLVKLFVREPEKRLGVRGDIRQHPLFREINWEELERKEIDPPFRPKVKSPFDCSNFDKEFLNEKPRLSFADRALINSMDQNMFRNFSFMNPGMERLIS
T1 sequence (P35968 20-1356): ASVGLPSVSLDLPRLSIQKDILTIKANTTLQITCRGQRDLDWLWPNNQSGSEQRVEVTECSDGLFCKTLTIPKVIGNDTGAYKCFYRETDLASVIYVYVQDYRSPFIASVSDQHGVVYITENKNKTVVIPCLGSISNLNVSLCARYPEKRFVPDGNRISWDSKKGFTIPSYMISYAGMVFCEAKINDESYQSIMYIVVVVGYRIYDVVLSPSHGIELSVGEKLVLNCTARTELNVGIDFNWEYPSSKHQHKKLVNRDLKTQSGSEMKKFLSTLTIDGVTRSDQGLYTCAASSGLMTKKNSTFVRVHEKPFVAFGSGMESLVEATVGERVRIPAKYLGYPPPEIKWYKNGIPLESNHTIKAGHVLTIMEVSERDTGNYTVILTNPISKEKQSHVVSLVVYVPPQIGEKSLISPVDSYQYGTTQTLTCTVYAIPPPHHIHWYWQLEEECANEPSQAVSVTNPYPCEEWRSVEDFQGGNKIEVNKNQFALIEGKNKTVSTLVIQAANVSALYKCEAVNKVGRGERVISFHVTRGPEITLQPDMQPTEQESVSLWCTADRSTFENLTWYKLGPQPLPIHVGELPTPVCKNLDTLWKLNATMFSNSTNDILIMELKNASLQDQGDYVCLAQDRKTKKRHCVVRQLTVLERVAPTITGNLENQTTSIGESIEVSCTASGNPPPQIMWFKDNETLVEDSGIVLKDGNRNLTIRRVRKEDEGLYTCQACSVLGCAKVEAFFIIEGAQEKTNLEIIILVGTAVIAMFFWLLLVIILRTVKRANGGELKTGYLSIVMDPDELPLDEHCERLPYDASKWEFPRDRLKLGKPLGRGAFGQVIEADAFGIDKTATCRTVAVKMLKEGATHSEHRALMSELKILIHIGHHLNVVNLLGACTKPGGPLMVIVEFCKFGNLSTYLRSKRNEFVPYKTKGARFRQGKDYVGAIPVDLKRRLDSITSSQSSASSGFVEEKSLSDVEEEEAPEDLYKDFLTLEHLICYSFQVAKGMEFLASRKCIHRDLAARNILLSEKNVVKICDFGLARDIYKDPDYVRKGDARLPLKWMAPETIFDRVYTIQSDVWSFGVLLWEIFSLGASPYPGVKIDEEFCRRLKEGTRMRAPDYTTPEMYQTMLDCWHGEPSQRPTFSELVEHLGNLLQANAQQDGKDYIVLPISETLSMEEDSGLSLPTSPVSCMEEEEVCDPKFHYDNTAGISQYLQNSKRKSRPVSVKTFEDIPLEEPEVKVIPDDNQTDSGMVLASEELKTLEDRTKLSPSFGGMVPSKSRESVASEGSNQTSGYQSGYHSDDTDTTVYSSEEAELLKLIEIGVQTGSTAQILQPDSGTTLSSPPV
T6 sequence (Q14289 whole entry): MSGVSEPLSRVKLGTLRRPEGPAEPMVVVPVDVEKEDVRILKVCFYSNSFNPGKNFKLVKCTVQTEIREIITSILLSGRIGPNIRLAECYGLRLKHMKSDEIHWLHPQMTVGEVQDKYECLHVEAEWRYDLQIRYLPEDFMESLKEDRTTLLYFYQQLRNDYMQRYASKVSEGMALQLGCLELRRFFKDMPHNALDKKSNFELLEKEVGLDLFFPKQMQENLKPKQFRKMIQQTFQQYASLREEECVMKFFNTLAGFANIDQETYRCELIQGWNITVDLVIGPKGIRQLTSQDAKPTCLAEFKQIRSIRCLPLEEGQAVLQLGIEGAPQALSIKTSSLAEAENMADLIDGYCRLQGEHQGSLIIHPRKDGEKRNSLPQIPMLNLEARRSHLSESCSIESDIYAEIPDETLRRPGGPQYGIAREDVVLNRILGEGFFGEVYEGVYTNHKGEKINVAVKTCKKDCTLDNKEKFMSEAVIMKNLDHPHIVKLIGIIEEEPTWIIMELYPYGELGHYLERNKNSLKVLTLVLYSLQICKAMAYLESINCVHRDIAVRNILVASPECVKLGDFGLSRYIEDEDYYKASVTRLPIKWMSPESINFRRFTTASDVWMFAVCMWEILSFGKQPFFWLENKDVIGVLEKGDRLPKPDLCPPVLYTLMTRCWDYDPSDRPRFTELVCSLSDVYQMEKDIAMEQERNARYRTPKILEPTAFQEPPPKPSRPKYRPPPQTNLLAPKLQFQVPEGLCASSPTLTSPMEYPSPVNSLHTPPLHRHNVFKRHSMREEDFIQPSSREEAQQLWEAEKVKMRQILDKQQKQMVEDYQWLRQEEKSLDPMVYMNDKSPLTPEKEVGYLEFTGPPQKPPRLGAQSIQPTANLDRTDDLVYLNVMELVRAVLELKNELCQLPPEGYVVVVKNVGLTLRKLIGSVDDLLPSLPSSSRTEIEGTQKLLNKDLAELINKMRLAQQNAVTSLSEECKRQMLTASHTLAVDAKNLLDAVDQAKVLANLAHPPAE
Sequence of MAP4K4 (O95819 whole entry): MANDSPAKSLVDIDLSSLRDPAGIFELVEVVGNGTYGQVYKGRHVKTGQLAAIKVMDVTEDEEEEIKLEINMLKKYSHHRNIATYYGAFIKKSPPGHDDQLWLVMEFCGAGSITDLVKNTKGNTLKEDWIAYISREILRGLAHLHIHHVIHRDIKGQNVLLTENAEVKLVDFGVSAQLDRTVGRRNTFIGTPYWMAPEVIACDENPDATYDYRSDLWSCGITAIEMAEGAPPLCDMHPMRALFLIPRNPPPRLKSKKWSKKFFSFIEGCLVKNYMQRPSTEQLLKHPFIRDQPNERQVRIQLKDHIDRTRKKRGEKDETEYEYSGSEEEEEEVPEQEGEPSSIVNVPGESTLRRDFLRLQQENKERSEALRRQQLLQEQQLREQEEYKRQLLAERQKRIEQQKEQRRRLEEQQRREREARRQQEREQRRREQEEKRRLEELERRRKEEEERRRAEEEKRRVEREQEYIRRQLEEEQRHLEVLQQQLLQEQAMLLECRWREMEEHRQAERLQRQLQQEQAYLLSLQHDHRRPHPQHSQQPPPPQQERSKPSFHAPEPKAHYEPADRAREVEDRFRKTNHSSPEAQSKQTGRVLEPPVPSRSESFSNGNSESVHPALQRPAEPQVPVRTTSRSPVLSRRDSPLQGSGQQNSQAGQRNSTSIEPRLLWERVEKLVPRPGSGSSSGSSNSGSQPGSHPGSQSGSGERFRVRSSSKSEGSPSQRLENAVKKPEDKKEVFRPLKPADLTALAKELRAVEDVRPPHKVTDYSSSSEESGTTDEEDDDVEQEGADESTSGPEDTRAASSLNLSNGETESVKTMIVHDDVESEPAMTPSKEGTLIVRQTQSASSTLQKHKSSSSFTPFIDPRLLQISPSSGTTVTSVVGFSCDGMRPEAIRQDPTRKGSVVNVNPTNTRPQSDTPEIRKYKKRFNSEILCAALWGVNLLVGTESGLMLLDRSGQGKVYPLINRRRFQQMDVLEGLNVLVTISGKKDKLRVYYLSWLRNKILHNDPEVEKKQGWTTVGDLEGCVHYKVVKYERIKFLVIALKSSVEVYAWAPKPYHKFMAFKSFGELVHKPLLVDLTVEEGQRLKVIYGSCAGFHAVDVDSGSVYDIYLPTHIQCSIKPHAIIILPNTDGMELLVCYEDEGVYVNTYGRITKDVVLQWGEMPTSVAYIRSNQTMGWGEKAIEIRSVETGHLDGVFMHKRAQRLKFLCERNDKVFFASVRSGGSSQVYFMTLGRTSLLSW

CC(=O)Nc1cccc(-c2ccnc3[nH]ccc23)c1 [Compound P-0030]
≤ 10 µM: Kdr | PKC theta | Zap70 | Stk6 | Kit

O=C1Nc2ccccc2/C1=C/c1c[nH]c2ncccc12 [Compound P-0069]
≤ 10 µM: Pyk2 | Kdr | MAP4K4 | PKC theta | Jnk2 | Ret | Stk6 | Kit
